In patent US6080772A, “Thiazole compounds and methods of modulating signal transduction” (Sugen, Inc., priority 1997, dated 2000):
Where two headings read alike, the source gives them in different places.

What was measured:
insulin receptor (IR) = experiment: Phosphotyrosine enzyme linked immunosorbent assay: pTyr on insulin receptor in NIH3T3 cells over-expressing human IR (H25 cells); details: for EC50: read-out: ACTIVITY EC50
primary adipocytes = experiment: Primary adipocyte glucose uptake assay (14C glucose); details: test compound 50 mM without insulin, compared to samples containing only insulin (final concentration=100 μm)

Molecule	CONC. (insulin receptor (IR); Table I, concentration of the compound which produces the percentage increase in phosphotyrosine over the vanadate control, 90 min incubation, no insulin) [µM]	EC50 (insulin receptor (IR); Table II, […], no lot stated) [µM]	response in the primary adipocyte glucose uptake assay compared with the insulin control (primary adipocytes)	level of pTyr on insulin receptor over time (FIG. 1) (insulin receptor (IR); kinetic experiments, range of concentrations, period of 90 minutes)	EC50 (insulin receptor (IR)) [µM]
CC(C)(C)c1nc(Sc2ncc([N+](=O)[O-])s2)n[nH]1 [Compound 2, 2-[(5-nitro-thiazol-2-yl)mercapto]-5-t-butyl-1,2,4-triazole]	4.1	16 to 20	did not give a response greater than or equal to the insulin control	–	–
2-[(5-nitrothiazol-2-yl)mercapto]-3-cyano-5-acetoxy-6-dimethoxymethyl-pyridine [Compound 97]	–	–	did not give a response greater than or equal to the insulin control	progressively raised the level of pTyr on insulin receptor	34
CC(C)n1c(Sc2ncc([N+](=O)[O-])s2)nc2ccccc21 [Compound 94, 1-Isopropyl-2-[(5-nitrothiazol-2-yl)mercapto]benzimidazole]	–	> 100	did not give a response greater than or equal to the insulin control	–	–
